Experimental data published in PubChem BioAssay AID248 (DTP/NCI, 2004).
Values joined by “and” are separate entries in the source; they are usually repeats but may differ in a detail not shown here. Equal values may be shown once. Toxic doses and inconclusive results are not listed.

Test system: L1210 leukemia ip in BDF1 mice, survival T/C
Assay: NCI In Vivo Anticancer Drug Screen. Data for tumor model L1210 Leukemia (intraperitoneal) in B6D2F1 (BDF1) mice
Settings: endpoint: mean survival time, higher = longer survival
Method in brief: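 Survival endpoint. Drug-treated group vs vehicle group, expressed as T divided by C. Tumor passaged by transplantation.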

[1] = dose: 100.0 mg/kg/injection, schedule: Q04DX002 (ip), vehicle: Klucel (hydroxypropylcellulose) (HPC)
[2] = dose: 200.0 mg/kg/injection, schedule: Q04DX002 (ip), vehicle: Klucel (hydroxypropylcellulose) (HPC)
[3] = dose: 400.0 mg/kg/injection, schedule: Q04DX002 (ip), vehicle: Klucel (hydroxypropylcellulose) (HPC)
[4] = dose: 100.0 mg/kg/injection, schedule: Q04DX003 (ip), vehicle: saline with Tween-80
[5] = dose: 200.0 mg/kg/injection, schedule: Q04DX003 (ip), vehicle: saline with Tween-80
[6] = dose: 400.0 mg/kg/injection, schedule: Q04DX003 (ip), vehicle: saline with Tween-80
[7] = dose: 100.0 mg/kg/injection, schedule: Q01DX001 (ip), vehicle: Klucel (hydroxypropylcellulose) (HPC)
[8] = dose: 200.0 mg/kg/injection, schedule: Q01DX001 (ip), vehicle: Klucel (hydroxypropylcellulose) (HPC)
[9] = dose: 400.0 mg/kg/injection, schedule: Q01DX001 (ip), vehicle: Klucel (hydroxypropylcellulose) (HPC)
[10] = dose: 100.0 mg/kg/injection, schedule: Q01DX001 (ip), vehicle: carboxymethylcellulose (CMC)
[11] = dose: 200.0 mg/kg/injection, schedule: Q01DX001 (ip), vehicle: carboxymethylcellulose (CMC)
[12] = dose: 400.0 mg/kg/injection, schedule: Q01DX001 (ip), vehicle: carboxymethylcellulose (CMC)
[13] = dose: 100.0 mg/kg/injection, schedule: Q01DX009 (ip), vehicle: saline with Tween-80
[14] = dose: 200.0 mg/kg/injection, schedule: Q01DX009 (ip), vehicle: saline with Tween-80

**Q.** How did the T/C [1] turn out when `Cc1ccc(S(=O)(=O)OCC2C(COS(=O)(=O)c3ccc(C)cc3)C3C4C5C2C2C3C4C52)cc1` (stereo not given) was run?
**A.** Its T/C is 98 % of control.

**Q.** What about the T/C [2] of the same molecule?
**A.** The T/C was 90 % of control.

**Q.** And the T/C [3]?
**A.** The T/C was 94 % of control.

**Q.** `Cc1cc2ccccc2c(N=Cc2cc(Br)cc(Br)c2O)c1C#N` was tested. Which T/C [4] did it give?
**A.** The T/C was 92 % of control and 98 % of control and 90 % of control.

**Q.** And the T/C (dose: 200.0 mg/kg/injection, schedule: Q01DX003 (ip), vehicle: saline with Tween-80)?
**A.** Its T/C is 87 % of control.

**Q.** What about the T/C [5] of the same molecule?
**A.** Its T/C is 93 % of control and 98 % of control and 90 % of control.

**Q.** And the T/C [6]?
**A.** Its T/C is 97 % of control and 101 % of control and 104 % of control.

**Q.** What does the source list for `CCCCCCCCOC(=O)c1ccc2nc3cc4ccccc4cc3nc2c1`?
**A.** T/C [1]: 94 % of control; T/C [2]: 92 % of control; T/C [3]: 92 % of control

**Q.** With `Cc1ccc(C)n1CCn1c(C)ccc1C` as the molecule, how does the T/C (dose: 100.0 mg/kg/injection, schedule: Q01DX009 (ip), vehicle: Klucel (hydroxypropylcellulose) (HPC)) read?
**A.** The T/C was 91 % of control.

**Q.** And the T/C [1]?
**A.** The T/C was 88 % of control.

**Q.** What about the T/C (dose: 200.0 mg/kg/injection, schedule: Q01DX009 (ip), vehicle: Klucel (hydroxypropylcellulose) (HPC)) of the same molecule?
**A.** The T/C was 94 % of control.

**Q.** And the T/C [2]?
**A.** The T/C was 93 % of control.

**Q.** And the T/C (dose: 400.0 mg/kg/injection, schedule: Q01DX009 (ip), vehicle: Klucel (hydroxypropylcellulose) (HPC))?
**A.** Its T/C is 91 % of control.

**Q.** What about the T/C [3] of the same molecule?
**A.** The T/C was 96 % of control.

**Q.** What does the source list for `CC1(C)OCC(C(OC(=O)c2ccc([N+](=O)[O-])cc2)C(OC(=O)c2ccc([N+](=O)[O-])cc2)C2COC(C)(C)O2)O1` (stereo not given)?
**A.** T/C [7]: 103 % of control; T/C [8]: 100 % of control; T/C [9]: 100 % of control

**Q.** With `COC(=O)c1cc(-c2ccc(Cl)cc2)nc2c(C)cc(C)cc12` as the molecule, how does the T/C [10] read?
**A.** The T/C was 92 % of control.

**Q.** And the T/C [11]?
**A.** The T/C was 101 % of control.

**Q.** What about the T/C [12] of the same molecule?
**A.** Its T/C is 89 % of control.

**Q.** For `Cc1cn2c(nc1=O)OC1CC2OC1CO` (stereo not given), which T/C (dose: 100.0 mg/kg/injection, schedule: Q01DX005 (ip), vehicle: saline) is on record?
**A.** Its T/C is 122 % of control.

**Q.** What about the T/C (dose: 200.0 mg/kg/injection, schedule: Q01DX005 (ip), vehicle: saline) of the same molecule?
**A.** Its T/C is 152 % of control.

**Q.** Which results are given for `c1ccc2ncccc2c1`?
**A.** T/C (dose: 100.0 mg/kg/injection, schedule: Q04DX003 (ip), vehicle: Klucel (hydroxypropylcellulose) (HPC)): 101 % of control; T/C (dose: 200.0 mg/kg/injection, schedule: Q04DX003 (ip), vehicle: Klucel (hydroxypropylcellulose) (HPC)): 95 % of control

**Q.** With `CCC/C=C(\C)C#CC1=CCCCC1` as the molecule, how does the T/C (dose: 50.0 mg/kg/injection, schedule: Q01DX001 (ip), vehicle: carboxymethylcellulose (CMC)) read?
**A.** Its T/C is 97 % of control.

**Q.** What about the T/C [10] of the same molecule?
**A.** The T/C was 100 % of control.

**Q.** What about the T/C [11] of the same molecule?
**A.** The T/C was 94 % of control.

**Q.** And the T/C [12]?
**A.** The T/C was 97 % of control.

**Q.** `CC12CCC3c4ccc([O-])c([N+]#N)c4CCC3C1CCC2=O` (stereo not given) was tested. Which T/C (dose: 25.0 mg/kg/injection, schedule: Q01DX009 (ip), vehicle: Klucel (hydroxypropylcellulose) (HPC)) did it give?
**A.** Its T/C is 103 % of control.

**Q.** And the T/C (dose: 50.0 mg/kg/injection, schedule: Q01DX009 (ip), vehicle: Klucel (hydroxypropylcellulose) (HPC))?
**A.** Its T/C is 87 % of control.

**Q.** For `C=CCNC(=O)NCCSC(=O)SCCCC`, which T/C [7] is on record?
**A.** Its T/C is 103 % of control.

**Q.** And the T/C [8]?
**A.** The T/C was 100 % of control.

**Q.** What about the T/C [9] of the same molecule?
**A.** Its T/C is 100 % of control.

**Q.** How did the T/C [13] turn out when `CCNC(C)(C)C(O)c1ccc(Cl)s1` (stereo not given) was run?
**A.** Its T/C is 98 % of control.

**Q.** What about the T/C [4] of the same molecule?
**A.** The T/C was 100 % of control.

**Q.** What about the T/C [14] of the same molecule?
**A.** Its T/C is 98 % of control.

**Q.** What about the T/C [5] of the same molecule?
**A.** The T/C was 102 % of control.

**Q.** And the T/C [6]?
**A.** The T/C was 103 % of control.

**Q.** With `O=Cc1cc2ccccc2cc1O` as the molecule, how does the T/C (dose: 50.0 mg/kg/injection, schedule: Q01DX009 (ip), vehicle: saline with Tween-80) read?
**A.** Its T/C is 91 % of control.

**Q.** What about the T/C [13] of the same molecule?
**A.** The T/C was 94 % of control.

**Q.** And the T/C [14]?
**A.** Its T/C is 97 % of control.

**Q.** Which results are given for `CCCCN(C(C)=O)c1nnc(NC(C)=O)s1`?
**A.** T/C (dose: 100.0 mg/kg/injection, schedule: Q04DX002 (ip), vehicle: saline with Tween-80): 102 % of control; T/C (dose: 200.0 mg/kg/injection, schedule: Q04DX002 (ip), vehicle: saline with Tween-80): 98 % of control; T/C (dose: 400.0 mg/kg/injection, schedule: Q04DX002 (ip), vehicle: saline with Tween-80): 98 % of control

**Q.** How did the T/C [10] turn out when `SC1c2cc(Cl)ccc2-c2ccc(Cl)cc21` was run?
**A.** Its T/C is 92 % of control.

**Q.** What about the T/C [11] of the same molecule?
**A.** Its T/C is 92 % of control.

**Q.** And the T/C [12]?
**A.** Its T/C is 92 % of control.

**Q.** Which results are given for `CC(C)CCOC(OCCC(C)C)OCCC(C)C`?
**A.** T/C (dose: 100.0 mg/kg/injection, schedule: Q01DX001 (ip), vehicle: saline): 100 % of control; T/C (dose: 200.0 mg/kg/injection, schedule: Q01DX001 (ip), vehicle: saline): 97 % of control; T/C (dose: 400.0 mg/kg/injection, schedule: Q01DX001 (ip), vehicle: saline): 105 % of control

**Q.** Which T/C (dose: 25.0 mg/kg/injection, schedule: Q01DX015 (ip), vehicle: carboxymethylcellulose (CMC)) does the source give for `CN(C)c1ccc(/C=C/c2cc(N(C)C)nc3ccccc23)cc1` here?
**A.** Its T/C is 109 % of control.

**Q.** And the T/C (dose: 50.0 mg/kg/injection, schedule: Q01DX015 (ip), vehicle: carboxymethylcellulose (CMC))?
**A.** The T/C was 105 % of control.

**Q.** What about the T/C (dose: 75.0 mg/kg/injection, schedule: Q01DX015 (ip), vehicle: carboxymethylcellulose (CMC)) of the same molecule?
**A.** Its T/C is 101 % of control.
